Experimental data: patent US7932290B2, “Method for the treatment of metabolic disorders” (Wellstat Biologics Corporation, priority 2003, dated 2011)

Columns and labels:
[1] = molecular target: T1, Human PPARα LBD fusion protein (Homo sapiens, UniProt Q07869); test: Transcription activation potential, GAL4 luciferase reporter in C3A cells; assay type: cell-based
T1 construct: a.a; 167-468)
T1 sequence (Q07869 167-468): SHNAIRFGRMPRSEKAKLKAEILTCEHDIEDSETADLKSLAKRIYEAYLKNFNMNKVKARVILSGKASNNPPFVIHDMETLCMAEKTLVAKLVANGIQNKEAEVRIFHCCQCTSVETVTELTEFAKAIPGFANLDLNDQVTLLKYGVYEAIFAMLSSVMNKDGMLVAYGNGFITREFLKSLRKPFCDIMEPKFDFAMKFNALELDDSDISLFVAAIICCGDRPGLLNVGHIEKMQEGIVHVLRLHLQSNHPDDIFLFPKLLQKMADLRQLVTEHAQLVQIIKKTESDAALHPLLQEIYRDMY
Procedure: (§1) Cells were seeded in 24 well plates the day prior to transfection at 5×10^4−2×10^5 cells/well, depending upon cell type. Cells were transfected using Lipofectamine 2000 reagent from Invitrogen. A total of 0.8 μg DNA/well was added to 50 μL of Optimem Reduced Serum media (serum free; Gibco). Lipofectamine 2000 was added (2.5 μL/well) to another tube containing 50 μL of Optimem media. Plasmid DNA was added at a ratio of 4:3 (reporter:activator); where appropriate, salmon sperm DNA was substituted for activator expressing plasmid. The reporter plasmid used was pFR-Luc, which has the firefly luciferase gene under the control of a GAL4 UAS ([…]) containing promoter. The activator expressing plasmids contain yeast GAL4 DNA binding domain (dbd) fusion of either human PPARα ligand binding domain (LBD; a.a. 167-468) or human PPARγ LBD (a.a. 176-479). DNA constructs containing the mouse PPARα or PPARγ LBD fused to the GAL4 DNA binding domain were also used. The two solutions were incubated at room temperature for 5 min, and then combined. The combined solution was incubated at room temperature for approximately 30 min. Cells were washed once with PBS, and 100 μL of transfection mix added to each well. Plates were incubated at 37° C. in a 5% CO2 incubator for 4.5 hr, followed by aspiration of the transfection mix, with plates refed using EMEM complete media (supplemented with 10% FBS, 1× Glutamine). 24 hr post-transfection, plates were treated with the appropriate compounds in EMEM complete media, followed by washing once with PBS and addition of 100 μL 1× reporter lysis buffer/well (Promega) 24 hr after treatment. Plates went through one freeze/thaw cycle prior to analysis. Approximately 10 μL of lysate was added to 100 μL of firefly luciferase substrate, mixed by pipetting, and analyzed on a luminometer for 10 s using the integration function (relative luciferase units/RLU) or on a Microbeta Trilux (luciferase counts per second/LCPS). Each treatment was performed in triplicate, and in multiple, separate experiments.

[2] = molecular target: T2, Mouse PPARα LBD fusion protein (Mus musculus, UniProt P23204); test: as above; assay type: cell-based
T2 sequence (P23204 239-466): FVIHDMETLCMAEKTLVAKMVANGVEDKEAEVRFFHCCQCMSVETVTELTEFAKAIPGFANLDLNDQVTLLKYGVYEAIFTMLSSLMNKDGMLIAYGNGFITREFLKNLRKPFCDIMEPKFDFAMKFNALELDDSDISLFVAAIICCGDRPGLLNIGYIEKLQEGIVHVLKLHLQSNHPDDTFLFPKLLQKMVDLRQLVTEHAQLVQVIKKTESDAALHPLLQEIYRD
Procedure: as §1

db/db mice = test: Antidiabetic effects in db/db mice, Example C (17 days daily oral dosing); assay type: in vivo, mouse
Description: C57BL/Ksola (db/db) mice have a defect in leptin signaling, leading to hyperphagia, obesity and diabetes. Moreover, unlike ob/ob mice on a C57BL/6J background, db/db mice on a C57BLKS background undergo failure of their insulin-producing pancreatic islet cells, resulting in progression from hyperinsulinemia (associated with peripheral insulin resistance) to hypoinsulinemic diabetes.
Male obese (db/db homozygote) C57BL/Ksola mice approximately 8 weeks of age, were obtained from Jackson Labs (Bar Harbor, Me.) and sorted into groups of 7 animals each animals such that the body weights (40-45 g) and serum glucose levels (≧300 mg/dl in fed state) were similar between groups. A minimum of 7 days was allowed for adaptation after arrival. All animals were maintained under controlled temperature (23° C.), relative humidity (50±5%) and light (7:00-19:00), and allowed free access to standard chow (Formulab Diet 5008, Quality Lab Products, Elkridge, Md.) and water.
Treatment cohorts were given daily oral doses of vehicle (1% hydroxypropylmethylcellulose), Compounds BI, CF, CG, or phenylacetate for 17 days. At the end of the treatment period, blood samples were collected and serum glucose and triglycerides were measured.

| transcription activation potential (luciferase) ± standard deviation ([1]; 1 μM) [LCPS] | transcription activation potential (luciferase) ± standard deviation ([1]; 3 μM) [LCPS] | transcription activation potential (luciferase) ± standard deviation ([1]; 10 μM) [LCPS] | transcription activation potential (luciferase) ± standard deviation ([1]; 30 μM) [LCPS] | transcription activation potential (luciferase) ± standard deviation ([1]; 100 μM) [LCPS] | transcription activation potential (luciferase) ± standard deviation ([1]; 200 μM) [LCPS] | transcription activation potential (luciferase) ± standard deviation ([2]; 1 μM, Table 20a) [LCPS] | transcription activation potential (luciferase) ± standard deviation ([2]; 3 μM, Table 20a) [LCPS] | transcription activation potential (luciferase) ± standard deviation ([2]; 10 μM, Table 20a) [LCPS] | transcription activation potential (luciferase) ± standard deviation ([2]; 30 μM, Table 20a) [LCPS] | transcription activation potential (luciferase) ± standard deviation ([2]; 100 μM, Table 20a) [LCPS] | transcription activation potential (luciferase) ± standard deviation ([2]; 100 μM, Table 21a) [RLU] | transcription activation potential (luciferase) ± standard deviation ([2]; 200 μM, Table 20a) [LCPS] | transcription activation potential (luciferase) ± standard deviation ([2]; 1 μM, Table 21a) [RLU] | transcription activation potential (luciferase) ± standard deviation ([2]; 3 μM, Table 21a) [RLU] | transcription activation potential (luciferase) ± standard deviation ([2]; 5 μM, Table 21a) [RLU] | transcription activation potential (luciferase) ± standard deviation ([2]; 7 μM, Table 21a) [RLU] | transcription activation potential (luciferase) ± standard deviation ([2]; 10 μM, Table 21a) [RLU] | SMILES | Glucose mg/dL (±SEM) (db/db mice; 100 mg/kg daily oral) [mg/dL] | Triglycerides (db/db mice; 100 mg/kg daily oral) [mg/dL] | also measured |
| --- | --- | --- | --- | --- | --- | --- | --- | --- | --- | --- | --- | --- | --- | --- | --- | --- | --- | --- | --- | --- | --- |
| 127.7 ± 7.1 | 128 ± 70.7 | 52.7 ± 8.2 | 55.4 ± 16.2 | 20.9 ± 13.1 | 31.1 ± 29.4 | 14.67 ± 1.08 | 15.2 ± 2.78 | 15.1 ± 3.78 | 10.43 ± 1.81 | 15.37 ± 6.21 | 4421 ± 118 | 18.6 ± 11.66 | – | – | – | – | – | Cc1cccc(C)c1COc1cccc(C(=O)CCC(=O)O)c1 [Compound BI, 4-(3-(2,6-Dimethylbenzyloxy)phenyl)-4-oxobutyric acid] | 472 ± 54 | 116 ± 4 | Glucose mg/dL (±SEM) (db/db mice; 150 mg/kg daily oral): 348 ± 67 mg/dL; Triglycerides (db/db mice; 150 mg/kg daily oral): 90 ± 6 mg/dL |
| 37 ± 11.5 | 47 ± 22.8 | 19.9 ± 7.8 | 40.2 ± 18.9 | 19 ± 14.2 | 12.9 ± 8.3 | 13.17 ± 7.84 | 5.63 ± 0.42 | 153.15 ± 24.4 | 358.6 ± 5.23 | 201.5 ± 50.84 | 41037 ± 5401 | 106.77 ± 32.53 | 2694 ± 159 | 4527 ± 740 | 7188 ± 1753 | 14325 ± 1032 | 16680 ± 2432 | Cc1cccc(C)c1COc1cccc(CC(=O)O)c1 [Compound CF, 3-(2,6-Dimethylbenzyloxy)phenylacetic acid] | 391 ± 61 | 92 ± 6 | transcription activation potential (luciferase) ± standard deviation ([2]; 30 μM, Table 21a): 38105 ± 3133 RLU; Glucose mg/dL (±SEM) (db/db mice; 30 mg/kg daily oral): 586 ± 31 mg/dL; Triglycerides (db/db mice; 30 mg/kg daily oral): 156 ± 20 mg/dL; Glucose mg/dL (±SEM) (db/db mice; 60 mg/kg daily oral): 604 ± 36 mg/dL; Triglycerides (db/db mice; 60 mg/kg daily oral): 120 ± 13 mg/dL |
| 10.9 ± 11.6 | 19.1 ± 6.1 | 17.9 ± 5.2 | 38.2 ± 21.1 | 23.9 ± 5.3 | 159.4 ± 29.6 | 4.43 ± 2.25 | 9.17 ± 3.72 | 7.87 ± 0.7 | 11.63 ± 5.01 | 11.8 ± 8.95 | 926 ± 1362 | 80.3 ± 2 | 361 ± 398 | 706 ± 399 | 492 ± 160 | 652 ± 190 | 394 ± 84 | Cc1cccc(C)c1COc1cccc(C(=O)O)c1 [Compound CG, 3-(2,6-Dimethylbenzyloxy)benzoic acid] | 753 ± 24 | 166 ± 14 | transcription activation potential (luciferase) ± standard deviation ([2]; 30 μM, Table 21a): 651 ± 643 RLU |
